Measured values from US7321027B2, “Small technetium-99m and rhenium labeled agents and methods for imaging tumors” (President and Fellows of Harvard College, priority 2000, dated 2008).
One block for each compound: values may come before it.

Assays:
[1] = Determination of lipophilicity and pKa values by HPLC; assay type: physicochemical; details: HPLC method
Method: The physicochemical parameters of the rhenium complexes, i.e. lipophilicity log P, log D(pH 7.4), and pKa (Table 2) were determined using HPLC methods (Braumann, T.; Grimme, L. H. Determination of Hydrophobic Parameters for Pyridazinone Herbicides by Liquid-Liquid Partition and Reversed-Phase High-Performance Liquid Chromatography. J. Chromatogr. 1981, 206, 7-15; Stytli, C.; Theobald, A. E. Determination of Ionization Constants of Radiopharmaceuticals in Mixed Solvents by HPLC. Appl. Radiat. Isot., 1987, 38, 701-708; Johannsen, B.; Scheunemann, M.; Spies, H.; Brust, P.; Wober, J.; Syhre, R.; Pietzsch, H.-J. Technetium(V) and Rhenium(V) Complexes for 5-HT2A Serotonin Receptor Binding: Structure-Affinity Considerations. Nucl. Med. Biol., 1996, 23, 429-438; and Johannsen, B.; Berger, R.; Brust, P.; Pietzsch, H.-J; Scheunemann, M.; Seifert, S.; Spies, H.; Syhre, R. Structural Modification of Receptor-Binding Technetium-99m Complexes in Order to Improve Brain Uptake. Eur. J. Nucl. Med. 1997, 24, 316-319). […] Since log D(pH 7.4) is a composite measure of log P and pKa, the log D(PH 7.4) of Re-Compound B (1.9) is also higher than that of Re-Compound A (1.1). […] With pKa values >9 for complexes Re-Compound C and Re-Compound D, the resulting low log D(PH 7.4) values of −0.5 (Re-Compound C) and 0.7 (Re-Compound D) are not surprising, since the complexes would exist in a protonated form at pH 7.4.
Determination of Lipophilicity and pKa Values. The lipophilicity and pKa values of all complexes were determined using HPLC methods described previously (Stylli, C.; Theobald, A. E. Determination of Ionization Constants of 4 Radiopharmaceuticals in Mixed Solvents by HPLC. Appl. Radiat. Isot., 1987, 38, 701-708; Johannsen, B.; Scheunemann, M.; Spies, H.; Brust, P.; Wober, J.; Syhre, R.; Pietzsch, H.-J. Technetium(V) and Rhenium(V) Complexes for 5-HT2A Serotonin Receptor Binding: Structure-Affinity Considerations. Nucl. Med. Biol., 1996, 23, 429-438; and Johannsen, B.; Berger, R.; Brust, P.; Pietzsch, H.-J.; Scheunemann, M.; Seifert, S.; Spies, H.; Syhre, R. Structural Modification of Receptor-Binding Technetium-99m Complexes in Order to Improve Brain Uptake. Eur. J. Nucl. Med. 1997, 24, 316-319). […] The mobile phase was acetonitrile:phosphate buffer (0.01 M), 3:1, v/v, with the aqueous buffer adjusted to the desired pH between 3 and 11. The capacity factor (k′) was calculated for each determination (Braumann, T.; Grimme, L. H. Determination of Hydrophobic Parameters for Pyridazinone Herbicides by Liquid-Liquid Partition and Reversed-Phase High-Performance Liquid Chromatography. J. Chromatogr. 1981, 206, 7-15; El Tayer, N.; van der Waterbeemd, H.; Testa, B. Lipophilicity Measurements of Protonated Basic Compounds by Reversed-Phase High-Performance Liquid Chromatography. II. Procedure for the Determination of a Lipophilic Index Measured by Reversed-Phase High Performance Liquid Chromatography. J. Chromatogr. 1985, 320, 305-312; and Minick, D. J.; Frenz, J. H.; Patrick, M. A.; Brent, D. A. A Comprehensive Method for Determining Hydrophobicity Constants by Reversed-Phase High-Performance Liquid Chromatography. J. Med. Chem., 1988, 31, 1923-1933) and the partition coefficient at a given pH (D or log D) were calculated from the equation: log D=a log k′+b where the parameters a and b are predetermined using standard amines. The fitted points of inflection from the sigmoidal DHPLC/pH profiles permit calculation of the pKHPLC(Stylli, C.; Theobald, A. E. Determination of Ionization Constants of Radiopharmaceuticals in Mixed Solvents by HPLC. Appl. Radiat. Isot., 1987, 38, 701-708). The aqueous ionization constants pKa were calculated from the pKHPLC values after correction with a predetermined correction factor obtained using standard amine compounds. Log P values of the neutral complexes were estimated from the respective upper plateau of the sigmoidal log D/pH curve in the alkaline range.

B16/F0 cells = assay: Tumor-cell uptake in the presence of DTG; assay type: cell-based, murine; details: 37° C.; for IC50: read-out: DTG concentration at 50% maximal inhibition of complex uptake, intact B16/F0 cells, DTG as the inhibitor; for lower tumor-cell uptake after pre-incubation with DTG: DTG 90 μM, 30 min prior
Description: J. Labelled Compd. Radiopharm. 1994, 35, 242-244; Vilner, B. J.; John, C. S.; Bowen, W. D. Sigma-I and Sigma-2 Receptors Are Expressed in a Wide Variety of Human and Rodent Tumor Cell Lines. Cancer Res. 1995, 55, 408-413; and John, C. S.; Vilner, B. J.; Gulden, M. E.; Efange, S. M. N.; Langason, R. B.; Moody, T. W.; Bowen, W. D. Synthesis and Pharmacological Characterization of 4-[^125I]-N-(N-Benzylpiperidin-4-yl)-4-iodobenzamide: A High Affinity σ Receptor Ligand for Potential Imaging of Breast Cancer. […] Pre-incubation of the tumor cells with DTG (90 μM), 30 min prior to the uptake experiments with the ^99mTc-complexes, yields a lower tumor-cell uptake for complexes Tc-(Compound A) (29% less), Tc-(Compound C) (33% less), and Tc-(Compound D) (32% less) at 37° C. (FIG. 4). Additional dose-response experiments conducted with intact B16/F0 cells at 37° C. with Tc-(Compound C) and DTG as the inhibitor (FIG. 3) show a DTG concentration-dependent decrease in the uptake of the complex.
The effect of the inhibitor DTG on cell uptake of these complexes was studied by addition of the inhibitor at various concentrations to the cell suspension 30 min prior to addition of the ^99mTc-complexes. Fresh DTG stock solutions were made by dissolving DTG (3.0 mg, 12.5 μmol) in 0.38 mL PBS and 0.12 mL hydrochloric acid (0.1 N) and subjecting the mixture to ultrasound until a clear solution was obtained, followed by the addition of 0.50 mL FBS to produce a neutral solution at pH 7.4. The stock solutions were diluted by an appropriate amount of S-MEM, and aliquots between 5 μL and 25 μL were added to the cell suspension such that the final concentration of DTG was between 0.02 μM and 120 μM in a total cell suspension volume of 350 μL.

[2] = tested on: B16/F0 murine melanoma cells; assay: In-vitro tumor-cell uptake, melanoma cells; assay type: cell-based; details: for decrease in cell uptake, incubation temperature from 37° C. to 4° C.: 4° C. vs 37° C.; for maximal cell uptake: 37° C., B16/F0 cell line
Method: (§1) In-Vitro Tumor-Uptake Studies. Tumor-cell uptake studies in B16/F0 murine melanoma cells were performed with complexes Tc-(Compound A-D and H-M) at 37° C. and 4° C. Additionally, tumor-cell uptake of complex Tc-(Compound A) was investigated in another rapidly dividing MCF-7 human breast cancer cell line.
In-Vitro Cell Studies. Murine B16/F0 melanoma cells and human MCF-7 breast cancer cells were obtained from American Type Culture Collection, Manassas Va., (ATCC) and were grown in T-175 flasks in 14 mL Dulbecco's Modified Eagle Medium (D-MEM; Gibco, Life Technology, Gaithersburg, Md.) containing 4500 mg/L D-glucose, L-glutamine, and pyridoxine hydrochloride, 110 mg/L sodium pyruvate, 10% fetal bovine serum (FBS), 0.2% gentamicin and 0.5% penicillin-streptomycin solution. All cells were harvested from cell culture flasks by trypsinization with 1 mL trypsin-EDTA solution (0.25% trypsin, 1 mM EDTA×4 Na) (Gibco). After being washed with 12 mL Dulbecco's Phosphate-Buffered Saline (PBS) (Gibco), pH 7.2 (Ca^2+- and Mg^2+-free; g/L KCl, 0.20; KH2PO4, 0.20; NaCl, 8.00; Na2HPO4, 1.15), the cells were counted and resuspended in 8 mL S-MEM (Gibco) (Ca^2+ free, with reduced Mg^2+ content) and stored at 4° C. until use.
For in-vitro tumor-cell accumulation studies, 5×10^6 cells in polypropylene test tubes were incubated at 37° C. or 4° C., with intermittent agitation with 1-2 μCi (5 μL) ^99mTc-complex Tc-(Compound A-D) in a total volume of 350 μL S-MEM. At appropriate time intervals the tubes were vortexed and 8-μL samples were layered on 350 μL cold FBS in a 400-μL Eppendorf microcentrifuge tube. After centrifugation at 15,000 rpm for 2 min, the tubes were frozen in a dry ice-acetone bath. While still frozen, the bottom tip of the microcentrifuge tube containing the cell pellet was cut and placed in a counting tube. The remaining portion of the tube with the supernatant was placed in a separate counting tube. Both fractions were counted for radioactivity in a γ-counter (WALLAC, 1480 WIZARD 3″™). The amount of supernatant in the cell pellet was determined to be <1% in separate experiments. The percentage cell uptake of the ^99mTc-complex was calculated as: % uptake=[cpm(pellet)]/[cpm(pellet)+cpm(supernatant)]×100

B16/F0 murine melanoma = assay: In-vivo tumor uptake and biodistribution; set-up: species or system C57B16 mice; details: mouse, in vivo
Method: In-Vivo Tumor Uptake. To study the tumor uptake of ^99mTc-complexes, Tc-(Compound A-D and J-K), in vivo, biodistribution experiments at 1 h and 6 h after their administration were carried out in C57B16 mice with palpable B16 melanoma nodules. The biodistribution data including melanoma/nontumor (M/NT) ratios for selected organs are summarized in Table 4 and 5 as percentage injected dose per gram ([…]).
Animal Studies. All animal experiments were performed in compliance with the Principles of Laboratory Animal Care (NIH publication #85-23, revised 1985). Biodistribution studies and tumor-uptake measurements were performed in C57B16 mice (15 to 20 g) bearing the B16/F0 murine melanoma on the hind limb. See for example the studies described in, which are hereby incorporated by reference, Brandau, W.; Niehoff, T.; Pulawski, P.; Jonas, M.; Dutschka, K.; Sciuk, J.; Coenen, H. H.; Schober, O. Structure Distribution Relationship of Iodine-123-Iodobenzamides as Tracers for the Detection of Melanotic Melanoma. J. Nucl. Med. 1996, 37, 1865-1871; Mohanmmed, A.; Nicholl, C.; Titsch, U.; Eisenhut, M. Radiojodinated N-(Alkylaminoalkyl)-Substituted 4-Methoxy-, 4-Hydroxy-, and 4-Aminobenzamides: Biological Investigations for the Improvement of Melanoma-Imaging Agents. Nucl. Med. Biol. 1997, 24, 373-380; Titsch, U.; Mohammed, A.; Wagner, S.; Oberdorfer, F.; Eisenhut, M. Syntheses of N-(2-Diethylaminoethyl)benzamides Suitable for ^99mTc Complexation. J. Labelled Compd. Radiopharm. 1997, 40, 416-418; Dittmann, H.; Coenen, H. H.; Zölzer, F.; Dutschka, K.; Brandau, W.; Streffer, C. In Vitro Studies on the Cellular Uptake of Melanoma Imaging Aminoalkyl-iodobenzamide Derivatives (ABA). Nucl. Med. Biol. 1999, 26, 51-56; and Michelot, J. M.; Moreau, M. F. C.; Veyre, A. J.; Bonafous, J. F.; Bacin, F. J.; Madelmont, J. C.; Bussiere, F.; Souteyrand, P. A.; Mauclaire, L. P.; Chossat, F. M.; Papon, J. M.; Labarre, P. G.; Kauffmann, Ph.; Plagne, R. J. Phase II Scintigraphic Clinical Trial of Malignant Melanoma and Metastases with Iodine-123-N-(2-Diethylaminoethyl 4-Iodobenzamide). J. Nucl. Med. 1993, 34, 1260-1266. The tumor cells (B16/F0), obtained from ATCC, were washed with PBS and transplanted subcutaneously on the left hind flank by an inoculation of 0.5×10^6 cells (0.1 mL). Ten to 14 days later the animals developed palpable tumor nodules 3 to 5 mm in diameter. The biodistribution studies were carried out by tail-vein injection of 25 to 30 μCi (0.05 to 0.1 mL) of the ^99mTc-labeled complexes Tc-(Compound A-D, H, J, K or M). At the designated time after tail-vein administration, the animals were weighed and sacrificed. The organs and tumors were harvested and, when appropriate, blotted dry, weighed, and counted in a gamma counter along with technetium-99m standards of the injected dose. The results are expressed as % ID/g tissue (Table 4 and 5)

[3] = tested on: MCF-7 human breast cancer cell line; assay: In-vitro tumor-cell uptake, breast cancer cells; assay type: cell-based; details: 37° C., MCF-7 cell line
Method: as §1
In-Vitro Cell Studies. […] After being washed with 12 mL Dulbecco's Phosphate-Buffered Saline (PBS) (Gibco), pH 7.2 (Ca^2+- and Mg^2+-free; g/L KCl, 0.20; KH2PO4, 0.20; NaCl, 8.00; Na2HPO4, 1.15), the cells were counted and resuspended in 8 mL S-MEM (Gibco) (Ca^2+ free, with reduced Mg^2+ content) and stored at 4° C. until use.
For in-vitro tumor-cell accumulation studies, 5×10^6 cells in polypropylene test tubes were incubated at 37° C. or 4° C., with intermittent agitation with 1-2 μCi (5 μL) ^99mTc-complex Tc-(Compound A-D) in a total volume of 350 μL S-MEM. […] Both fractions were counted for radioactivity in a γ-counter (WALLAC, 1480 WIZARD 3″™). The amount of supernatant in the cell pellet was determined to be <1% in separate experiments. The percentage cell uptake of the ^99mTc-complex was calculated as: % uptake=[cpm(pellet)]/[cpm(pellet)+cpm(supernatant)]×100

SMILES: CCN(CC)CCN1CC[S][Tc]2(=[O])[S]CC[N]2C(=O)C1 (centres unmarked) [Tc-(Compound A)]
IC50 (B16/F0 cells): 21 µM

SMILES: CCN(CC)CCCN1CC[S][99Tc]2(=[O])[S]CC[N]2C(=O)C1 (centres unmarked) [Tc-(Compound C)]
lower tumor-cell uptake after pre-incubation with DTG (B16/F0 cells): 33%
decrease in cell uptake, incubation temperature from 37° C. to 4° C. [2]: 77%
maximal cell uptake [2]: 62%
mel/blood ratio (B16/F0 murine melanoma): 19
mel/lung ratio (B16/F0 murine melanoma): 12.7
mel/spleen ratio (B16/F0 murine melanoma): 19
maximum cell uptake [3]: 17%

SMILES: CCN(CC)CCCN1CC[S][Tc]2(=[O])[S]CC[N]2C(=O)C1 (centres unmarked) [Tc-(Compound C)]
IC50 (B16/F0 cells): 49 µM

SMILES: CCCCN(CCCC)CCCN1CC[S][99Tc]2(=[O])[S]CC[N]2C(=O)C1 (centres unmarked) [Tc-(Compound D)]
lower tumor-cell uptake after pre-incubation with DTG (B16/F0 cells): 32%
decrease in cell uptake, incubation temperature from 37° C. to 4° C. [2]: 23%
maximal cell uptake [2]: 68%

SMILES: CCCCN(CCCC)CCCN1CC[S][Tc]2(=[O])[S]CC[N]2C(=O)C1 (centres unmarked) [Tc-(Compound D)]
IC50 (B16/F0 cells): 52 µM

Next, values leading:

log P [1]: 1.6
pKa [1]: 7.7
log D(pH 7.4) [1]: 1.1
SMILES: CCN(CC)CCN1CC[S][Re]2(=[O])[S]CC[N]2C(=O)C1 (centres unmarked) [Re-Compound A, [ReOAADT]-C2—NEt2]

log P [1]: 3.3
pKa [1]: 7.7
log D(pH 7.4) [1]: 1.9
SMILES: CCCCN(CCCC)CCN1CC[S][Re]2(=[O])[S]CC[N]2C(=O)C1 (centres unmarked) [Re-Compound B, [ReOAADT]-C2—NBu2]

log D(pH 7.4) [1]: 0.7
SMILES: CCCCN(CCCC)CCCN1CC[S][Re]2(=[O])[S]CC[N]2C(=O)C1 (centres unmarked) [Re-Compound D, [ReOAADT]-C3—NBu2]
